# PubChem BioAssay (NCI)
#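 Results reflect a 48-hour exposure of cells in 96-well plates to compound at five concentrations. TGI: concentration producing complete growth inhibition.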
# Experiments:
# Assay in all cases: NCI-60 cell line screen, 48 h
# [1] = test system: ACHN renal
# [2] = test system: HOP-62 NSCLC
# [3] = test system: UACC-257 melanoma
# [4] = test system: SN12C renal
# [5] = test system: SR leukemia
# [6] = test system: SNB-19 CNS
# [7] = test system: OVCAR-5 ovarian
# [8] = test system: NCI-H460 lung
# [9] = test system: HCT-116 colon
# [10] = test system: KM20L2 colon
# [11] = test system: HCC-2998 colon
# [12] = test system: A549 NSCLC
# [13] = test system: HT29 colon
# [14] = test system: HL-60(TB) leukemia
# [15] = test system: TK-10 renal
# [16] = test system: LOX IMVI melanoma
# [17] = test system: KM12 colon
# [18] = test system: NCI-H522 lung
# [19] = test system: SK-OV-3 ovarian
# [20] = test system: MALME-3M melanoma
Structure (SMILES),TGI [1] [µM],TGI [2] [µM],TGI [3] [µM],TGI [4] [µM],TGI [5] [µM],TGI [6] [µM],TGI [7] [µM],TGI [8] [µM],TGI [9] [µM],TGI [10] [µM],TGI [11] [µM],TGI [12] [µM],TGI [13] [µM],TGI [14] [µM],TGI [15] [µM],TGI [16] [µM],TGI [17] [µM],TGI [18] [µM],TGI [19] [µM],TGI [20] [µM]
CCCCNC(=O)/N=C/c1c(O)c2ccccc2oc1=O,> 100,> 100,> 100,> 100,> 100,> 100,> 100,> 100,> 100,> 100,> 100,> 100,> 100,57.4,> 100,> 100,–,–,–,–
O=C(N/N=C/c1cc(Br)cc(Br)c1[O-])c1ccccc1O.O=C(N/N=C/c1cc(Br)cc(Br)c1[O-])c1ccccc1O.[Ni+2],1.53,1.82,2.28,–,1.65,3.67,1.34,1.66,1.55,1.85,1.39,2.33,2.24,0.346,1.87,1.84,2.13,0.727,1.95,1.98
COc1ccc(C[C@H](N)C(=O)N2C[C@@H](CO)C[C@@H](n3ccc(=O)[nH]c3=O)C2)cc1,> 100,> 100,–,> 100,> 100,> 100,> 100,> 100,> 100,> 100,> 100,> 100,> 100,> 100,> 100,> 100,> 100,> 100,> 100,> 100
COC1OC2=CCC3C(=O)NC(=O)C3C2[C@H](OCc2ccccc2)C1OCc1ccccc1 (stereo partly specified),34.8,31.7,3.68,3.14,–,–,29.1,32.6,3.21,5.59,11.4,40.1,3.36,–,3.12,3.22,19.4,3.18,30.8,3.26
